US20200113913A1, “METHODS FOR HAIR FOLLICLE STEM CELL PROLIFERATION” (Frequency Therapeutics, Inc., priority 2017, published 2020)
“Also recorded” adds a separate entry of the source.

Columns and labels:
GSK3-alpha = GSK3-alpha (Homo sapiens, UniProt P49840); conditions: cited from earlier work
GSK3-beta = GSK3-beta (Homo sapiens, UniProt P49841); conditions: cited from earlier work
[1] = tested on: Dermal Papilla (DP) cells; test: Stem Cell Proliferation Assay using dermal papilla; type: cell-based; conditions: Purmorphamine 1 μM; for Alkaline Phosphatase (Alp) colonies: Example 4, FIG. 4
Experimental: Dermal Papilla (DP) proliferation cell culture assay refers to a cell culture method to quantify the number of Dermal Papilla (DP) spheroids, size of DP spheroids, or number of DP cells in cell culture, which is measured at the end of the assay. DP cells refer to cells that express Alkaline Phosphatase (AP), and/or Versican, and/or Vimentin, and/or Sox2, and/or CD133.
The protocol for the Stem Cell Proliferation Assay using dermal papilla is as follows:
Basal media: DMEM/high-glucose medium and F12, supplemented with N2 1×, B27 1×, Streptomycin sulfate (100 μg/ml), Amphotericin B ([…]), and 1 mM Hepes.
Microdissection is used to remove intact hair follicles from a specimen. Intact follicles are incubated for 40 min at 37° C. in TrypLE™ (Thermo Fisher Scientific) with 1 mg/ml collagenase type 1 (sterilized using 0.2 μm syringe filter). The treated follicles are then triturated >30× using a 200 μl pipette tip. The volume is adjusted up to 1 ml with 1×PBS. The treated follicles are then passed through a 40 μm cell strainer to obtain a single cell suspension.
Twenty μl are applied to a cell counter to determine the number of cells per 1 ml. The remaining cell suspension is spun down at 1,000×g for 5 min at 4° C.
Standard media is prepared supplemented with growth factors (IGF, EGF, and FGF2 at 50 ng/ml). The cells are suspended in standard media with growth factors at 120,000 cells/ml and 250 μl (30,000 cells) are applied to each well of a 24-well plate (Corning Costar, 3534).
Each treatment condition is prepared at 2× concentration, enough for 250 μl/well for a final dilution of 1× in 500 μl. The final DMSO concentration is at about 0.2% for all.
250 μl 2× treatment media is applied to each well to have a final media volume per well of 500 μl. The final treatment concentration per well is 1×. The final cell density is 30,000 cells per well. […]
EVOS® transmitted light images are taken at 0, 5, 7, and 10 days in culture.
Spheroids are collected at 10 days in culture for immunoblotting, qPCR, or flow cytometry. Alternatively, spheroids may be applied to glass bottom dishes coated with poly-1-lysine for alkaline phosphatase (AP) staining, 5-ethynyl-2′-deoxyuridine (EdU) staining, and/or immunofluorescence for DP markers (e.g. Vimentin, Sox2, Versican, CD133) for microscopy.
Alternatively, cells or colonies may be assessed using microscopy to compare DP properties across conditions.

[2] = Example 1, FIG. 1, 8 days in culture, CHIR99021 4 μM, alone or combined
[3] = Example 2, FIG. 2, 10 days in culture, Compound I-7 10 nM, alone or combined
[4] = 10 days in culture, Compound I-7 10 nM, alone or combined
[5] = Example 3, FIG. 3, SAG 3 nM, SAG HCl 500 nM, alone or with Compound I-7 10 nM

Sequence of GSK3-alpha (P49840 whole entry, species assumed): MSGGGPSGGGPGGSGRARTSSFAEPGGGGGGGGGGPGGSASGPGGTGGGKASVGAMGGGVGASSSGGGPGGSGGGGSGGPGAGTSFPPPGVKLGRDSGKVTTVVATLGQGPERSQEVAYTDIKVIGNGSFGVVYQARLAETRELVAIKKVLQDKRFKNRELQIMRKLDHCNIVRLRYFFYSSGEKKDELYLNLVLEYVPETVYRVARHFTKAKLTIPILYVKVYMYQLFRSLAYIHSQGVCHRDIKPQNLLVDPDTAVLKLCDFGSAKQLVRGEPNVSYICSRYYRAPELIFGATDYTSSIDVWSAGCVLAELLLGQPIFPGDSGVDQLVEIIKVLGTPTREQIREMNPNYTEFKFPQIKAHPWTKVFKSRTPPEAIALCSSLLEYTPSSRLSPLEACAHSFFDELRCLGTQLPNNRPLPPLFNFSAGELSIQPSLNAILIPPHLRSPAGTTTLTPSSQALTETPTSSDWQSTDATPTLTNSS
Sequence of GSK3-beta (P49841 whole entry, species assumed): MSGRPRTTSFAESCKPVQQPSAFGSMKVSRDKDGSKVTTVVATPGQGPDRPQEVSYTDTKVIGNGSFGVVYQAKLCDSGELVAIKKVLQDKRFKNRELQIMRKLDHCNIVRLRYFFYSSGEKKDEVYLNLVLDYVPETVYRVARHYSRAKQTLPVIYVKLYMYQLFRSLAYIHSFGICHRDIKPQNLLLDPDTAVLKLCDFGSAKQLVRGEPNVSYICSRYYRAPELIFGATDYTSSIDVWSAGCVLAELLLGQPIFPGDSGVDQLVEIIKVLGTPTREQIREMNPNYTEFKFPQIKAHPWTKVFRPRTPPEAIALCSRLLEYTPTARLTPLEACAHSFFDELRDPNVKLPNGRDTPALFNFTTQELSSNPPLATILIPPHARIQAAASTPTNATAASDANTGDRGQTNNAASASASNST

Q: For `N#Cc1ccc2[nH]c(O)c(-c3ccc(CN4CCOCC4)cn3)c2c1` [AZD1080], which “Potency in nM GSK3-alpha” value (GSK3-alpha) is on record?
A: The value was 6.9 nM.

Q: What does the source list for `COc1ccccc1[C@@H]1C2=C(CC(C)(C)CC2=O)Nc2n[nH]c(C(F)(F)F)c21` [BRD1172]?
A: Potency in nM GSK3-alpha (GSK3-alpha): 3 nM; Potency in nM GSK3-beta (GSK3-beta): 10 nM

Q: With `CC1(C)CC(=O)C2=C(C1)Nc1n[nH]c(C(F)(F)F)c1[C@]2(C)c1ccccc1` [BRD1652] as the compound, how does the “Potency in nM GSK3-alpha” value (GSK3-alpha) read?
A: Its value is 0.4 nM.

Q: And the “Potency in nM GSK3-beta” value (GSK3-beta)?
A: The value was 4 nM.

Q: For `Cc1c[nH]c(-c2cnc(NCCNc3ccc(C#N)cn3)nc2-c2ccc(Cl)cc2Cl)n1` [CHIR99021], which “DP colonies by light microscopy” value [1, 2] is on record?
A: Its value is “more abundant colonies than FIG. 1A; also recorded: more abundant colonies than DP cells treated in control conditions”.

Q: What does the source list for `O=C1NC(=O)C(c2cnc3ccccn23)=C1c1cn2c3c(cc(F)cc13)CN(C(=O)N1CCC(F)(F)CC1)CC2` [Compound I-7, 3-(2-(4,4-difluoropiperidine-1-carbonyl)-9-fluoro-1,2,3,4-tetrahydro-[1,4]diazepino[6,7,1-hi]indol-7-yl)-4-(imidazo[1,2-a]pyridin-3-yl)-1H-pyrrole-2,5-dione]?
A: DP colonies by light microscopy [1, 3]: more abundant colonies than FIG. 2A; also recorded: more abundant colonies than DP cells treated in control conditions; Alkaline Phosphatase (Alp) colonies [1, 4]: small Alp colonies; also recorded: few Alp colonies

Q: Which “Potency in nM GSK3-alpha” value (GSK3-alpha) does the source give for `Cc1ccc(C(=O)Nc2c[nH]nc2C(=O)NCCCOC(C)C)cn1` [GSK-3b XXII] here?
A: Its value is 2.3 nM.

Q: Which “DP colonies by light microscopy” value [1, 2] does the source give for `c1ccc2c(Oc3nc(Nc4ccc(N5CCOCC5)cc4)c4ncn(C5CCCCC5)c4n3)cccc2c1` [Purmorphamine] here?
A: Its value is “slightly larger and more abundant colonies than FIG. 1A; also recorded: slightly larger and more abundant colonies than DP cells treated in control conditions”.

Q: What about the “DP colonies by light microscopy” value [1, 3] of the same compound?
A: Its value is “slightly larger and more abundant colonies than FIG. 2A; also recorded: slightly larger and more abundant colonies than DP cells treated in control conditions”.

Q: And the “DP colonies by light microscopy” value [1, 5]?
A: The value was “form colonies”.

Q: And the “Alkaline Phosphatase (Alp) colonies” value [1, 4]?
A: The value was “few Alp colonies”.

Q: With `CNC1CCC(N(Cc2cccc(-c3ccncc3)c2)C(=O)c2sc3ccccc3c2Cl)CC1` (centres unmarked) [SAG] as the compound, how does the “DP colonies by light microscopy” value [1, 5] read?
A: The value was “form colonies”.
